Results as given in patent publication US10227331B2 (priority 2015, dated 2019).

Assays:
VIM-1 = VIM-1 (Pseudomonas aeruginosa (strain ATCC 15692 / DSM 22644 / CIP 104116 / JCM 14847 / LMG 12228 / 1C / PRS 101 / PAO1), UniProt A0A0F7KYQ8); test: biochemical; conditions: CCF2-FA substrate, 2 hours at 25° C
Description: (§1) Enzyme Activity: Determination of IC50
(§2) The Class B enzyme activities were measured in the presence of the test inhibitor in a fluorescence assay against a commercially available substrate consisting of a cephalosporin core linking 7-hydroxycoumarin to fluorescein (CCF2-FA). […] In a 384-well microplate, the test inhibitor was incubated with the metallo-β-lactamase enzyme and the substrate for 2 hours at 25° C. […] The IC50 value was determined from semi-logarithmic plots of enzyme inhibition versus inhibitor concentration, with a curve generated using a 4-parameter fit.

[1] = tested on: P. aeruginosa expressing IMP-1, efflux+ (MB9798); format: cell-based, Pseudomonas aeruginosa; conditions: for P. aeruginosa expressing IMP-1, efflux+ (MB9798) MITC95: imipenem at 2 μg/mL, in the presence of a class A, C, D serine β-lactamase inhibitor closely related to relebactam; for Efflux ratio: ratio MITC95 PA_9798/MITC95 PA_9799
Excerpt: (§3) The strain background is Pseudomonas aeruginosa PAO1.

[2] = tested on: Escherichia coli expressing NDM-1 (CLB30005, CLB30016); format: cell-based; conditions: with imipenem 1 μg/ml; 95% inhibition of bacterial growth
Description: (§4) Antibiotic Potentiation Activity: Determination of Synergistic Concentration
(§5) The bacterial strains tested included the clinical strains Escherichia coli expressing NDM-1 (CLB30005, CLB30016), Serratia marcescens expressing IMP-1 (CL5741), and Klebsiella pneumoniae expressing VIM-1 (IHMA599644). Inhibitor activity was measured in the presence and absence of imipenem in a 384-well microplate.
(§6) The clinical strains CLB30016, CL5741 and IHMA599644 were grown on trypticase soy agar containing 5% sheep's blood. The bacteria on agar plates were incubated at 35° C. with humidity overnight. The following day, individual colonies from each clinical strain were picked and resuspended in 5 ml saline to attain an OD600 of […], for CLB30016, CL5741 and IHMA599644, respectively. These were further diluted 1:100 into 1.1×CAMHB and used to inoculate the test wells as described below.
(§7) Imipenem in 10 mM 3-(N-morpholino)propanesulfonic acid (MOPS, pH 7) was stored in single use aliquots at −80° C. […] On the day of the assay, 4 μl of antibiotic was added to 45 ul of bacteria followed by 1 μl of test compound and mixed by pipetting and with an orbital shaker. The concentration of antibiotic used in the assay was 1 μg/ml. Microplates were covered and incubated at 35° C. for 22 hours to 24 hours. At the end of the incubation, absorbance was determined using a spectrophotometer.
(§8) For example, in general, the compounds of Examples 1-379 were determined to restore susceptibility to imipenem for one or more of the test organisms at concentrations of 100 μM or less.

[3] = tested on: Serratia marcescens expressing IMP-1 (CL5741); format: cell-based; conditions: with imipenem 1 μg/ml; 95% inhibition of bacterial growth
Description: as §4, §5, §6, §7, §8

[4] = tested on: Klebsiella pneumoniae expressing VIM-1 (IHMA599644); format: cell-based; conditions: with imipenem 1 μg/ml; 95% inhibition of bacterial growth
Description: as §4, §5, §6, §7, §8

[5] = tested on: P. aeruginosa expressing IMP-1, efflux− (MB9799); test: Efflux: concentration of MBL inhibitor which restores susceptibility to imipenem; format: cell-based, Pseudomonas aeruginosa; conditions: imipenem at 2 μg/mL, in the presence of a class A, C, D serine β-lactamase inhibitor closely related to relebactam
Excerpt: as §3

IMP-1 = IMP-1 (Serratia marcescens, UniProt P52699); test: biochemical; format: biochemical; conditions: CCF2-FA substrate, 2 hours at 25° C; read-out: IMP-1 IC50
Sequence of IMP-1 (P52699 whole entry, looked up, species assumed): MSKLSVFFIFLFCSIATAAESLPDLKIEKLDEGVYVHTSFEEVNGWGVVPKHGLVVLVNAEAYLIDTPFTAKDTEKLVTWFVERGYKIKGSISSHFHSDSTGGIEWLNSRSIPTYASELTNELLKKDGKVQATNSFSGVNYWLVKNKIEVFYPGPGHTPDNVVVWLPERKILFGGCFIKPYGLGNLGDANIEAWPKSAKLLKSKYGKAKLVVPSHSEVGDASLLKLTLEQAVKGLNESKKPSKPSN
Description: as §1, §2

NDM-1 = NDM-1 (Klebsiella pneumoniae, UniProt C7C422); test: biochemical; format: biochemical; conditions: CCF2-FA substrate, 2 hours at 25° C; read-out: NDM-1 IC50
Sequence of NDM-1 (C7C422 whole entry, looked up, species assumed): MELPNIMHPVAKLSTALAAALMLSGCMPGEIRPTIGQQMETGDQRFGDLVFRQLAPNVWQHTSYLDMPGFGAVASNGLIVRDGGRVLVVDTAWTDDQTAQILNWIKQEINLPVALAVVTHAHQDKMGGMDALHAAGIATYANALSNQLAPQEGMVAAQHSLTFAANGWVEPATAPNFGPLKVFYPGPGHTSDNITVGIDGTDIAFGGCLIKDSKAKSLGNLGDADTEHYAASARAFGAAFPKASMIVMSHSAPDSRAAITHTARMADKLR
Description: as §1, §2

| SMILES | IC50 (VIM-1) | P. aeruginosa expressing IMP-1, efflux+ (MB9798) MITC95 [1] | Efflux ratio [1] | Escherichia coli expressing NDM-1 (CLB30016) MITC95 [2] | Serratia marcescens expressing IMP-1 (CL5741) MITC95 [3] | Klebsiella pneumoniae expressing VIM-1 (IHMA599644) MITC95 [4] | P. aeruginosa expressing IMP-1, efflux− (MB9799) MITC95 [5] | IC50 (IMP-1) | IC50 (NDM-1) |
| --- | --- | --- | --- | --- | --- | --- | --- | --- | --- |
| Nc1nc2c(-c3ccc(SC4CNC4)c(S(N)(=O)=O)c3-c3nn[nH]n3)cccc2[nH]1 [Example 2, 3-(2-amino-1H-benzo[d]imidazol-4-yl)-6-(azetidin-3-ylthio)-2-(2H-tetrazol-5-yl)benzenesulfonamide] | 73.7 nM | 6.25 µM | 4.88 | 0.5 µM | 1.781 µM | 6.25 µM | 1.281 µM | 75.8 nM | 2.24 nM |
| Nc1nc2cccc(-c3ccc(SC4CCNCC4)c(S(N)(=O)=O)c3-c3nn[nH]n3)c2[nH]1 [Example 3, 3-(2-amino-3H-benzo[d]imidazol-4-yl)-6-(piperidin-4-ylthio)-2-(2H-tetrazol-5-yl)benzenesulfonamide] | 79.5 nM | 25 µM | 9.75 | 0.125 µM | 6.25 µM | 25 µM | 2.563 µM | 109 nM | 3.27 nM |
| NS(=O)(=O)c1c(SC2CNC2)ccc(-c2ccc(C3CCNCC3)cc2)c1-c1nn[nH]n1 [Example 4, 4-(Azetidin-3-ylthio)-4′-(piperidin-4-yl)-2-(2H-tetrazol-5-yl)-[1,1′-biphenyl]-3-sulfonamide] | 53.5 nM | 1.563 µM | 4.00 | 0.7813 µM | 1.563 µM | 3.125 µM | 0.3906 µM | 15.1 nM | 11.5 nM |
| NS(=O)(=O)c1c([S+]([O-])C2CNC2)ccc(-c2ccc(C3CCNCC3)cc2)c1-c1nn[nH]n1 (stereo not drawn) [Example 5, 4-(Azetidin-3-ylsulfinyl)-4′-(piperidin-4-yl)-2-(2H-tetrazol-5-yl)-[1,1′-biphenyl]-3-sulfonamide] | 2.02 nM | 3.125 µM | 2.00 | 3.125 µM | 3.125 µM | 3.125 µM | 1.563 µM | 6.88 nM | 1.98 nM |
| NS(=O)(=O)c1c(S(=O)(=O)C2CNC2)ccc(-c2ccc(C3CCNCC3)cc2)c1-c1nn[nH]n1 [Example 6] | 0.195 nM | 0.7813 µM | 1.00 | 0.7813 µM | 1.563 µM | 1.563 µM | 0.7813 µM | 0.212 nM | 0.307 nM |
| NS(=O)(=O)c1c(SC2CNC2)ccc(-c2cnc3ccccn23)c1-c1nn[nH]n1 [Example 7, 6-(azetidin-3-ylthio)-3-(imidazo[1,2-a]pyridin-3-yl)-2-(2H-tetrazol-5-yl)benzenesulfonamide] | 25.6 nM | 25 µM | 8.00 | 0.3906 µM | 3.125 µM | 6.25 µM | 3.125 µM | 50.4 nM | 7.55 nM |
| NS(=O)(=O)c1c([S+]([O-])C2CNC2)ccc(-c2cnc3ccccn23)c1-c1nn[nH]n1 (stereo not drawn) [Example 8, 6-(azetidin-3-ylsulfinyl)-3-(imidazo[1,2-a]pyridin-3-yl)-2-(2H-tetrazol-5-yl)benzenesulfonamide] | 6.92 nM | 50 µM | 8.00 | 3.125 µM | 12.5 µM | 12.5 µM | 6.25 µM | 37.7 nM | 2.62 nM |
| NS(=O)(=O)c1c(S(=O)(=O)C2CNC2)ccc(-c2cnc3ccccn23)c1-c1nn[nH]n1 [Example 9, 6-(Azetidin-3-ylsulfonyl)-3-(imidazo[1,2-a]pyridin-3-yl)-2-(2H-tetrazol-5-yl)benzenesulfonamide] | 0.375 nM | 6.25 µM | 4.00 | 0.7813 µM | 1.563 µM | 3.125 µM | 1.563 µM | 0.913 nM | 0.332 nM |
| Nc1ccc(-c2ccc([S+]([O-])C3CCNCC3)c(S(N)(=O)=O)c2-c2nn[nH]n2)cn1 (stereo not drawn) [Example 10, 3-(6-aminopyridin-3-yl)-6-(piperidin-4-ylsulfinyl)-2-(2H-tetrazol-5-yl)benzenesulfonamide] | 6.46 nM | 6.25 µM | 2.00 | 6.25 µM | 6.25 µM | 6.25 µM | 3.125 µM | 27.3 nM | 3.2 nM |
| Nc1nc2ccc(-c3ccc([S+]([O-])C4CCNCC4)c(S(N)(=O)=O)c3-c3nn[nH]n3)cc2[nH]1 (stereo not drawn) [Example 12, 3-(2-amino-3H-benzo[d]imidazol-5-yl)-6-(piperidin-4-ylsulfinyl)-2-(2H-tetrazol-5-yl)benzenesulfonamide] | 4.36 nM | 25 µM | 8.00 | 6.25 µM | 6.25 µM | 6.25 µM | 3.125 µM | 130 nM | 4.06 nM |
| Nc1nc2c(-c3ccc([S+]([O-])C4CNC4)c(S(N)(=O)=O)c3-c3nn[nH]n3)cccc2[nH]1 (stereo not drawn) [Example 13, 3-(2-amino-1H-benzo[d]imidazol-4-yl)-6-(azetidin-3-ylsulfinyl)-2-(2H-tetrazol-5-yl)benzenesulfonamide] | 6.61 nM | 6.25 µM | 4.00 | 0.3906 µM | 3.125 µM | 1.563 µM | 1.563 µM | 50.8 nM | 0.619 nM |
| Nc1nc2cccc(-c3ccc([S+]([O-])C4CCNCC4)c(S(N)(=O)=O)c3-c3nn[nH]n3)c2[nH]1 (stereo not drawn) [Example 14, 3-(2-amino-3H-benzo[d]imidazol-4-yl)-6-(piperidin-4-ylsulfinyl)-2-(2H-tetrazol-5-yl)benzenesulfonamide] | 0.868 nM | 6.25 µM | 4.00 | 6.25 µM | 3.125 µM | 3.125 µM | 1.563 µM | 23.9 nM | 0.292 nM |
